Counter-ions that a name gives are not always drawn. Marks after values point to notes of the source that are not given here.

We go through 15 molecules from patent EP0170121A1, “2-Hydroxy-3-aryloxypropyl or 2-hydroxy-2-benzofuranyl ethyl tertiary amine having an anti-hyperglycaemic and/or anti-obesity activity” (BEECHAM GROUP PLC, priority 1984, dated 1986).

Assay type in all cases: in vivo
In one assay the test system is Female CD1 mice. Description: Effect on energy expenditure of mice (oxygen consumption, oral dosing). The conditions noted are these: p.o. in water, percentage of the rate of energy expenditure of the mice dosed with water, dose differs per compound (Dose mg/kg p.o.); for Mean Energy Expenditure (0-3h): 0-3h after dosing; for Mean Energy Expenditure (0-21h): 0-21h after dosing. On the procedure: Female CD1 mice each weighing approximately 24 g were given food and water ad lib before and during the experiment. The compounds were dissolved in water and these solutions were administered orally to each of 12 mice. A further 12 mice were dosed orally with water. The mice were placed in groups of threes in boxes through which air was drawn and the oxygen content of the air leaving the boxes was measured. The energy expenditure of the mice was calculated for 3 and 21 hours after dosing from the volume of air leaving the boxes and its oxygen content, following the principles described by J.B. de V. Weir, J. Physiol. (London) 109, 1-9 (1949). The results are expressed as a percentage of the rate of energy expenditure of the mice dosed with water.

The next assay concerns Male Sprague-Dawley rats. Description: Effect on energy expenditure of rats (oxygen consumption, oral dosing). The conditions noted are these: deprived of food, p.o. in water, percentage of the rate of energy expenditure of the rats dosed with water, dose differs per compound (Dose mg/kg p.o.); for Mean Energy Expenditure (0-3h): 0-3h after dosing; for Mean Energy Expenditure (0-21h): 0-21h after dosing. The procedure: Male Sprague-Dawley rats each weighing between 170-200 g were deprived of food for 16 hours before, and during the experiment. Water was provided ad lib at all times. The compounds were administered orally in water to 3 or 4 rats. A further 4 rats were dosed orally with water. The rats were placed in boxes through which air was drawn and the oxygen content of the air leaving the boxes was measured. The energy expenditure of the rats was calculated for 3 hours and for 21 hours after dosing from the volume of air leaving the boxes and its oxygen content, following the principles described by J.B. de V. Weir, J. Physiol. (London) 109, 1-9 (1949). The results are expressed as a percentage of the rate of energy expenditure of the rats dosed with water.

The test system of the next assay is Female CFLP mice. Kind of assay: Hypoglycaemic activity: subcutaneous glucose load, area under blood glucose curve. Particulars: female CFLP mice fasted 24 hours; compound orally 30 minutes before glucose 1 g/kg s.c.; 2 hour period; versus control mice given water; dose differs per compound (Dose µmol/kg). The procedure: Female CFLP mice, weighing approximately 25 g, were fasted for 24 hours prior to the study. The compounds under study were administered orally as an aqueous solution to each of 6 mice. 30 minutes later a blood sample (20 µl) was obtained from the tail for the analysis of blood glucose. Immediately after taking this blood sample, glucose (1 g/kg body weight) was administered subcutaneously to each mouse. 6 mice were given water as a control. Blood samples were then obtained from each mouse at 30 minute intervals for 120 minutes.
Compounds that produced a significant (p<0.05) reduction of blood glucose, compared with control mice given water, at any time interval, were considered active. The area under the blood glucose curve over the 2 hour period after the administration of the glucose was calculated for each compound and compared with the value for control animals.

Turning to `Br.C[C@H](CCc1ccc(C(N)=O)cc1)N(C[C@H](O)COc1ccccc1)C[C@H](O)COc1ccccc1.O.O` [Example 13, 4-[(R)-3-[Bis-[(S)-2-hydroxy-3-phenoxypropyl]amino]butyl]-benzamide, hydrobromide, dihydrate], in the assay on Female CD1 mice, the “Mean Energy Expenditure (0-3h)” value came to 103 percentage and the “Mean Energy Expenditure (0-21h)” value came out at 105 percentage. Besides, in the assay on Male Sprague-Dawley rats, the “Mean Energy Expenditure (0-3h)” value came out at 108 percentage and the “Mean Energy Expenditure (0-21h)” value is listed as 106 percentage. In addition, in the assay with Female CFLP mice, the “% Reduction in Area under Blood Glucose Curve” value (shortened to “% Reduction in Area”) amounted to 15%.

With `CCOC(=O)COc1ccc(CC[C@@H](C)N(C[C@H](O)COc2ccccc2)C[C@H](O)c2ccccc2)cc1` [Example 21, Ethyl 4-[(R)-3-[N-[(R)-2-hydroxy-2-phenethyl]-N-[(S)-2-hydroxy-3-phenoxypropyl]amino]butyl]phenoxyacetate, hydrochloride], in the assay on Male Sprague-Dawley rats, the “Mean Energy Expenditure (0-3h)” value was 110 percentage and the “Mean Energy Expenditure (0-21h)” value stood at 107 percentage.

Turning to `COC(=O)c1ccc(C[C@@H](C)N(C[C@@H](O)COc2ccccc2)C[C@H](O)c2ccccc2)cc1` [Example 5, Methyl 4-[(R)-2-[N-[(R)-2-hydroxy-2-phenethyl]-N-[(R)-2-hydroxy-3-phenoxypropyl]amino]propyl]benzoate hydrochloride], in the assay on Female CD1 mice, the “Mean Energy Expenditure (0-3h)” value came to 136 percentage and the “Mean Energy Expenditure (0-21h)” value worked out at 112 percentage. Moreover, the “% Reduction in Area” value in the assay on Female CFLP mice amounted to 38%.

Regarding `COC(=O)COc1ccc(CC(C)N(CC(O)COc2ccccc2)CC(O)c2cc(Cl)c(N)c(Cl)c2)cc1` (stereo not shown) [Example 29, Methyl 4-[2-[N-[2-(4-amino-3,5-dichlorophenyl)-2-bydroxy-ethyl]-N-[2-hydroxy-3-phenoxypropyl]amino]propyl]phenoxyacetate, hemifumarate], in the assay on Male Sprague-Dawley rats, the “Mean Energy Expenditure (0-3h)” value worked out at 131 percentage and the “Mean Energy Expenditure (0-21h)” value is listed as 122* percentage.

On to `COC(=O)c1ccc(C[C@@H](C)N(C[C@@H](O)COc2ccccc2)C[C@@H](O)COc2ccccc2)cc1` [Example 2, Methyl 4-[(R)-2-[bis-[(R)-2-hdroxy-3-penoxypropyl]amino]propyl]benzoate, fumarate], for which the entries for the “Mean Energy Expenditure (0-3h)” value in the assay with Female CD1 mice and in the assay with Male Sprague-Dawley rats were 122 percentage and 114 percentage, respectively. Besides, the figures for the “Mean Energy Expenditure (0-21h)” value with Female CD1 mice and in the assay on Male Sprague-Dawley rats were 97 percentage and 100 percentage, respectively.

Take `COC(=O)COc1ccc(C[C@@H](C)N(C[C@H](O)COc2ccccc2)C[C@H](O)c2ccccc2)cc1` [Example 24, Methyl 4-[(R)-2-(N-[(R)-2-hydroxy-2-phenethyl]-N-[(S)-2-hydroxy-3-phenoxypropyl]amino]propyl]phenoxyacetate, hydrochloride, hemihydrate]: in the assay on Male Sprague-Dawley rats, the “Mean Energy Expenditure (0-3h)” value is 146 percentage and the “Mean Energy Expenditure (0-21h)” value is on record as 122 percentage.

For the molecule `CCOC(=O)COc1ccc(C[C@@H](C)N(CC(O)c2cc3ccccc3o2)C[C@H](O)COc2ccccc2)cc1.Cl` (stereo partly drawn) [Example 26, Ethyl 4-[(R)-2-[N-[2-(2-benzofuranyl)-2-hydroxyethyl]-N-[(S)-2-hydroxy-3-phenoxypropyl]amino]propyl]phenoxyacetate, hydrochloride], in the assay on Male Sprague-Dawley rats, the “Mean Energy Expenditure (0-3h)” value was 142 percentage and the “Mean Energy Expenditure (0-21h)” value is 117 percentage. Also, the “% Reduction in Area” value with Female CFLP mice is recorded as 34%.

On to `C[C@H](COc1ccc(OCC(N)=O)cc1)N(C[C@H](O)COc1ccccc1)C[C@H](O)c1ccccc1` [Example 25, 4-[(R)-2-[N-[(R)-2-Hydroxy-2-phenethyl]-N-[(S)-2-hydroxy-3-phenoxypropyl]amino]propoxy]phenoxyacetamide, hydrochloride], for which, in the assay on Male Sprague-Dawley rats, the “Mean Energy Expenditure (0-3h)” value was determined as 126 percentage and the “Mean Energy Expenditure (0-21h)” value came out at 115 percentage.

Consider `CC(Cc1ccc(OCC(N)=O)cc1)N(CC(O)COc1ccccc1)CC(O)c1cc(Cl)c(N)c(Cl)c1` (stereo not shown) [Example 30, 4-[2-[N-[2-(4-Amino-3,5-dichlorophenyl)-2-hydroxyethyl]-N-[2-hydroxy-3-phenoxypropyl]amino]propyl]phenoxyacetamide], for which, in the assay on Male Sprague-Dawley rats, the “Mean Energy Expenditure (0-3h)” value amounted to 129 percentage and the “Mean Energy Expenditure (0-21h)” value is 116* percentage.

As to `C[C@H](Cc1ccc(OCC(N)=O)cc1)N(C[C@H](O)COc1ccccc1)C[C@H](O)c1cccc(Cl)c1` [Example 19, 4-[(R)-2-[N-[(R)-2-(3-Chlorophenyl)-2-hydroxyethyl]-N-[(S)-2-hydroxy-3-phenoxypropyl]amino]propyl]phenoxyacetamide, hydrochloride, hemihydrate], in the assay on Male Sprague-Dawley rats, the “Mean Energy Expenditure (0-3h)” value came to 120 percentage and the “Mean Energy Expenditure (0-21h)” value was determined as 106 percentage. For the same molecule, the “% Reduction in Area” value in the assay with Female CFLP mice is 43%.

As to `CNC(=O)c1ccc(C[C@@H](C)N(C[C@@H](O)COc2ccccc2)C[C@H](O)c2ccccc2)cc1` [Example 7, N-Methyl 4-[(R)-2-[N'-[(R)-2-hydroxy-2-phenethyl]-N'-[(R)-2-hydroxy-3-phenoxypropyl]amino]propyl]benzamide], in the assay with Female CD1 mice, the “Mean Energy Expenditure (0-3h)” value turned out to be 119 percentage and the “Mean Energy Expenditure (0-21h)” value was determined as 102 percentage. The “% Reduction in Area” value in the assay with Female CFLP mice was 18%.

For the molecule `C[C@H](Cc1ccc(OCCO)cc1)N(C[C@H](O)COc1ccccc1)C[C@H](O)c1ccccc1` [Example 22, 4-[(R)-2-[N-[(R)-2-Hydroxy-2-phenethyl]-N-[(S)-2-hydroxy 3-phenoxypropyl]amino]propyl]phenoxyethanol, hydrochloride, hemihydrate], in the assay on Male Sprague-Dawley rats, the “Mean Energy Expenditure (0-3h)” value was 120 percentage and the “Mean Energy Expenditure (0-21h)” value was 107 percentage.

For `C[C@H](Cc1ccc(OCC(N)=O)cc1)N(C[C@@H](O)COc1ccccc1)C[C@H](O)c1ccc(O)cc1` [Example 28, 4-[(R)-2-[N-[(R)-2-Hydroxy-2-(4-hydroxyphenyl)ethyl]-N-[(R)-2-hydroxy-3-phenoxypropyl]amino]propyl]phenoxyacetamide], in the assay with Male Sprague-Dawley rats, the “Mean Energy Expenditure (0-3h)” value was 131 percentage and the “Mean Energy Expenditure (0-21h)” value is 117* percentage.

Regarding `COC(=O)c1ccc(C[C@@H](C)N(CC(O)c2cc(Cl)c(N)c(Cl)c2)C[C@H](O)COc2ccccc2)cc1` (stereo partly drawn) [Example 10, Methyl 4-[(R)-2-[N-[2-(4-amino-3,5-dichlorophenyl]-2-hydroxyethyl]-N-[(S)-2-hydroxy-3-phenoxypropyl]amino]propyl benzoate], in the assay with Female CD1 mice, the “Mean Energy Expenditure (0-3h)” value is on record as 121 percentage and the “Mean Energy Expenditure (0-21h)” value stood at 122 percentage. In addition, the “% Reduction in Area” value in the assay with Female CFLP mice was 31%.

`CCOC(=O)COc1ccc(C[C@@H](C)N(CC(O)c2cc3ccccc3o2)C[C@H](O)c2ccccc2)cc1` (stereo partly drawn) [Example 27, Ethyl 4-[(R)-2-[N-[(R)-2-hydroxy-2-phenethyl]-N-[2-(2-benzofuranyl)-2-hydroxyethyl]amino]propyl]phenoxyacetate hydrochloride]: in the assay with Male Sprague-Dawley rats, the “Mean Energy Expenditure (0-3h)” value is given as 134 percentage and the “Mean Energy Expenditure (0-21h)” value is given as 114 percentage.
